Experimental data taken from the NIST ThermoML archive (doi:10.1021/je034224j).

Assay: xn = mol fraction of the nth substance listed

CCOC(C)=O [ethyl acetate] + O=C=O
Details	mass density [kg/m3]
333 K, 5360 kPa, Gas, x2 = 0.1231	987.7
333 K, 5360 kPa, Liquid, x2 = 0.5727	865.7
333 K, 5960 kPa, Gas, x2 = 0.1544	986
333 K, 5960 kPa, Liquid, x2 = 0.6283	836.3
333 K, 6470 kPa, Gas, x2 = 0.1698	986.1
333 K, 6470 kPa, Liquid, x2 = 0.6584	814.8
333 K, 7570 kPa, Gas, x2 = 0.2068	978.7
333 K, 7570 kPa, Liquid, x2 = 0.7586	785.3
333 K, 8460 kPa, Gas, x2 = 0.2731	973.6
333 K, 8460 kPa, Liquid, x2 = 0.8057	746.7
333 K, 8970 kPa, Gas, x2 = 0.3708	969.6
333 K, 8970 kPa, Liquid, x2 = 0.8421	720.4
353 K, 3960 kPa, Gas, x2 = 0.0666	980.2
353 K, 3960 kPa, Liquid, x2 = 0.5532	923.2
353 K, 5060 kPa, Gas, x2 = 0.0935	978.3
353 K, 5060 kPa, Liquid, x2 = 0.5767	920.9
353 K, 6270 kPa, Gas, x2 = 0.127	973.9
353 K, 6270 kPa, Liquid, x2 = 0.6075	919.6
353 K, 7470 kPa, Gas, x2 = 0.1822	967.8
353 K, 7470 kPa, Liquid, x2 = 0.627	901.7
353 K, 8470 kPa, Gas, x2 = 0.22	966.1
353 K, 8470 kPa, Liquid, x2 = 0.6668	854
353 K, 9470 kPa, Gas, x2 = 0.2634	956
353 K, 9470 kPa, Liquid, x2 = 0.7587	746.5
373 K, 5690 kPa, Gas, x2 = 0.0819	964.1
373 K, 5690 kPa, Liquid, x2 = 0.4697	758.8
373 K, 6460 kPa, Gas, x2 = 0.1202	961.2
373 K, 6460 kPa, Liquid, x2 = 0.5001	784.3
373 K, 7960 kPa, Gas, x2 = 0.1682	955.5
373 K, 7960 kPa, Liquid, x2 = 0.5505	790.5
373 K, 9470 kPa, Gas, x2 = 0.2401	944
373 K, 9470 kPa, Liquid, x2 = 0.6046	781.7
373 K, 10570 kPa, Gas, x2 = 0.352	923.9
373 K, 10570 kPa, Liquid, x2 = 0.6715	788.4
373 K, 11370 kPa, Gas, x2 = 0.4692	913.5
373 K, 11370 kPa, Liquid, x2 = 0.7259	780.3
393 K, 5060 kPa, Gas, x2 = 0.055	951.6
393 K, 5060 kPa, Liquid, x2 = 0.455	713.7
393 K, 5460 kPa, Gas, x2 = 0.0849	941.9
393 K, 5460 kPa, Liquid, x2 = 0.4831	744.8
393 K, 6970 kPa, Gas, x2 = 0.1218	932.1
393 K, 6970 kPa, Liquid, x2 = 0.5129	771.1
393 K, 8480 kPa, Gas, x2 = 0.1766	917.3
393 K, 8480 kPa, Liquid, x2 = 0.545	804.3
393 K, 9970 kPa, Gas, x2 = 0.255	895.6
393 K, 9970 kPa, Liquid, x2 = 0.5744	791.8
393 K, 11470 kPa, Gas, x2 = 0.4	856.8
393 K, 11470 kPa, Liquid, x2 = 0.6237	755.8
393 K, 11970 kPa, Gas, x2 = 0.6025	846.6
393 K, 11970 kPa, Liquid, x2 = 0.6629	719.7

CCOC(=O)CC [ethyl propanoate] + O=C=O
Liquid
Details	mass density [kg/m3]
313 K, 2960 kPa, x2 = 0.5818	971
313 K, 3960 kPa, x2 = 0.6881	973.6
313 K, 4460 kPa, x2 = 0.7509	965.9
313 K, 4960 kPa, x2 = 0.799	960.9
313 K, 5460 kPa, x2 = 0.8301	950.9
313 K, 5970 kPa, x2 = 0.8675	923.3
313 K, 6270 kPa, x2 = 0.8871	902.4
333 K, 2960 kPa, x2 = 0.4093	900.2
333 K, 3460 kPa, x2 = 0.4733	905.3
333 K, 4460 kPa, x2 = 0.5479	902.9
333 K, 5460 kPa, x2 = 0.6214	895.5
333 K, 5960 kPa, x2 = 0.6608	886.6
333 K, 6660 kPa, x2 = 0.7224	868.7
333 K, 7260 kPa, x2 = 0.7819	842.2
353 K, 2960 kPa, x2 = 0.3557	864.4
353 K, 3860 kPa, x2 = 0.4093	864.9
353 K, 4960 kPa, x2 = 0.4746	869.1
353 K, 5960 kPa, x2 = 0.5459	855.1
353 K, 6960 kPa, x2 = 0.6173	854
353 K, 7970 kPa, x2 = 0.6847	850.5
353 K, 8870 kPa, x2 = 0.7529	824.3
373 K, 2960 kPa, x2 = 0.3282	817
373 K, 4460 kPa, x2 = 0.3961	812.4
373 K, 5960 kPa, x2 = 0.4965	802.1
373 K, 7470 kPa, x2 = 0.5422	788.2
373 K, 8970 kPa, x2 = 0.6332	766.7
373 K, 10570 kPa, x2 = 0.7127	735.7
373 K, 10970 kPa, x2 = 0.7391	720.9
